# Results from patent US11053204B2, “Pyrimidinyloxy benzene derivatives as herbicides” (FMC Corporation, priority 2015, dated 2021).
# Tests used:
# Assay in all cases: Test C postemergence, plant response rating
# Type in all cases: in vivo
# [1] = tested on: Canada thistle (Cirsium arvense); details: for Canada Thistle plant response rating: scale 0 to 100 (0 no effect, 100 complete control)
# Method in brief: (§1)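 Pre-emergence: seeds sown in loam soil–sand blend or silt loam and sprayed with test chemicals in a non-phytotoxic solvent mixture with surfactant. Post-emergence: plants 2 to 18 cm (1- to 4-leaf stage) in peat-based potting medium, same formulation. Greenhouse 13 to 15 d; visual rating 0 (no effect) to 100 (complete control) versus controls.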
# [2] = tested on: buckwheat, wild (wild buckwheat, Polygonum convolvulus); details: for Buckwheat, Wild plant response rating: scale 0 to 100 (0 no effect, 100 complete control)
# Method in brief: as §1
# [3] = tested on: field poppy (Papaver rhoeas); details: for Field Poppy plant response rating: scale 0 to 100 (0 no effect, 100 complete control)
# Method in brief: as §1
# [4] = tested on: field violet (Viola arvensis); details: for Field Violet plant response rating: scale 0 to 100 (0 no effect, 100 complete control)
# Method in brief: as §1
# [5] = tested on: geranium, cutleaf (cutleaf geranium, Geranium dissectum); details: for Geranium, Cutleaf plant response rating: scale 0 to 100 (0 no effect, 100 complete control)
# Method in brief: as §1
# [6] = tested on: nightshade (eastern black nightshade, Solanum ptycanthum); details: for Nightshade plant response rating: scale 0 to 100 (0 no effect, 100 complete control)
# Method in brief: as §1
# [7] = tested on: pigweed, palmer (palmer pigweed, Amaranthus palmeri); details: for Pigweed, Palmer plant response rating: scale 0 to 100 (0 no effect, 100 complete control)
# Method in brief: as §1
# [8] = tested on: speedwell (bird's-eye speedwell, Veronica persica); details: for Speedwell plant response rating: scale 0 to 100 (0 no effect, 100 complete control)
# Method in brief: as §1
# [9] = tested on: wild mustard (Sinapis arvensis); details: for Mustard, Wild plant response rating: scale 0 to 100 (0 no effect, 100 complete control)
# Method in brief: as §1
# [10] = tested on: windgrass (Apera spica-venti)
# Method in brief: as §1
compound,measurement,setting,value
O=C(CCC(F)(F)C(F)(F)F)c1c(Br)cccc1Oc1ncc(Cl)cn1 [Compound 110],"Plant response rating, Canada Thistle","[1]; 16 g ai/ha, scale of 0 to 100",65
same,"Plant response rating, Canada Thistle","[1]; 31 g ai/ha, scale 0 to 100",90
same,Canada Thistle plant response rating,[1]; 62 g ai/ha,98
same,Canada Thistle plant response rating,[1]; 125 g ai/ha,95
same,"Plant response rating, Buckwheat, Wild","[2]; 16 g ai/ha, scale of 0 to 100",85
same,"Plant response rating, Buckwheat, Wild","[2]; 31 g ai/ha, scale 0 to 100",85
same,"Buckwheat, Wild plant response rating",[2]; 62 g ai/ha,95
same,"Buckwheat, Wild plant response rating",[2]; 125 g ai/ha,80
same,"Plant response rating, Field Poppy","[3]; 16 g ai/ha, scale of 0 to 100",85
same,"Plant response rating, Field Poppy","[3]; 31 g ai/ha, scale 0 to 100",100
same,Field Poppy plant response rating,[3]; 62 g ai/ha,100
same,Field Poppy plant response rating,[3]; 125 g ai/ha,100
same,"Plant response rating, Field Violet","[4]; 16 g ai/ha, scale of 0 to 100",80
same,"Plant response rating, Field Violet","[4]; 31 g ai/ha, scale 0 to 100",95
same,Field Violet plant response rating,[4]; 62 g ai/ha,95
same,Field Violet plant response rating,[4]; 125 g ai/ha,100
same,"Plant response rating, Geranium, Cutleaf","[5]; 16 g ai/ha, scale of 0 to 100",5
same,"Plant response rating, Geranium, Cutleaf","[5]; 31 g ai/ha, scale 0 to 100",30
same,"Geranium, Cutleaf plant response rating",[5]; 62 g ai/ha,40
same,"Geranium, Cutleaf plant response rating",[5]; 125 g ai/ha,60
same,"Plant response rating, Nightshade","[6]; 16 g ai/ha, scale of 0 to 100",75
same,"Plant response rating, Nightshade","[6]; 31 g ai/ha, scale 0 to 100",85
same,Nightshade plant response rating,[6]; 62 g ai/ha,95
same,Nightshade plant response rating,[6]; 125 g ai/ha,98
same,"Plant response rating, Pigweed, Palmer","[7]; 16 g ai/ha, scale of 0 to 100",75
same,"Plant response rating, Pigweed, Palmer","[7]; 31 g ai/ha, scale 0 to 100",95
same,"Pigweed, Palmer plant response rating",[7]; 62 g ai/ha,98
same,"Pigweed, Palmer plant response rating",[7]; 125 g ai/ha,95
same,"Plant response rating, Speedwell","[8]; 16 g ai/ha, scale of 0 to 100",60
same,"Plant response rating, Speedwell","[8]; 31 g ai/ha, scale 0 to 100",95
same,Speedwell plant response rating,[8]; 62 g ai/ha,90
same,Speedwell plant response rating,[8]; 125 g ai/ha,95
same,"Plant response rating, Mustard, Wild","[9]; 16 g ai/ha, scale of 0 to 100",90
same,"Plant response rating, Mustard, Wild","[9]; 31 g ai/ha, scale 0 to 100",90
same,"Mustard, Wild plant response rating",[9]; 62 g ai/ha,100
same,"Mustard, Wild plant response rating",[9]; 125 g ai/ha,100
same,"Plant response rating, Windgrass","[10]; 16 g ai/ha, scale of 0 to 100",20
same,"Plant response rating, Windgrass","[10]; 31 g ai/ha, scale 0 to 100",25
same,Windgrass plant response rating,"[10]; 125 g ai/ha, scale 0 to 100 (0 no effect, 100 complete control)",30
